This is an account of results in patent US6585961B1, “Antimicrobial compositions” (priority 2001, dated 2003).

The nature of data set [1]: Appearance and particle size of essential oil emulsion with surfactant. Type of data set: physicochemical. The following applies: Table I; for Appearance: emulsion of essential oils with surfactant; for Estimated Particle Size: micelle of essential oils with surfactant. The text has this:
Since there are literally thousands of surfactants, many of which fulfill these criteria, it would be a very difficult task to examine every one of them on an individual basis. […]

The nature of data set [2]: Hydrophile-lipophile balance (HLB) of surfactant. The following applies: for HLB: Table I; for HLB Value: surfactants (2 wt. %) found to give the desired results. It is filed as physicochemical. The text has this: An old and well-accepted method to determine functionality of surfactants is known as the hydrophile -lipophile balance (HLB). The HLB is an expression of the relative simultaneous attraction of a surfactant for water and for oil. The HLB of a surfactant determines the type of an emulsion that tends to be formed. It is an indicative of the behavior characteristics and not an indication of surfactant efficiency.
When two or more surfactants are to be blended the HLB of the combinations is easily calculated. If x is the proportion of one surfactant having an HLB of A, and the other surfactant has an HLB of B, the HLB of the combination can be expressed for all practical purposes as xA+(1−x)B. This is a straight-line relationship. If the value of this 16 or greater, then most likely the combination will be workable.

Where only a bound is given, the exact number is not on record here.

On to “Glyceryl dilaurate [Glyceryl dilaurate Lexemul GDL]”, for which, in data set [1], the Appearance entry was “not dispersible” and the “Estimated Particle Size” value was “very large^1”. In data set [2], the HLB was found to be 2.4.

Consider `CCCCCCCCCCCCOS(=O)(=O)[O-].[Na+]` [Dodecyl sulfate, sodium salt], for which the “HLB Value” in data set [2] was “˜40”.

Take “Cocamidopropyl betaine [Tego Betaine ZF]”: in data set [1], the Appearance entry is reported as “transparent” and the “Estimated Particle Size” value was “≧0.05u”.

Consider `CCCCCCCCCCCCCCCCCC(=O)OCCO` [Glycol stearate LIPO EGDS, Glycol stearate], for which, in data set [1], the Appearance is recorded as 2 phase and the “Estimated Particle Size” value is “very large^1”. Also, in data set [2], the HLB is 2.0.

Turning to “DL-2-pyrrolidone-5-carboxylic acid salt of ethyl N-cocoyl-L-arginate”, the “HLB Value” in data set [2] is reported as above 20.
